Drawing on PubChem BioAssay AID489033 (Sanford-Burnham Center for Chemical Genomics, 2010), this text covers IC50 for 86 molecules.

The structures appear in SMILES notation. Active and inactive are the calls of the source. The rule behind the calls is not given here.

The assay relates to 697B B-cell line, NF-kB luciferase reporter luminescence. The assay is described as follows: NF-kB reporter inhibition in B cells, dose response, selectivity assay for T-cell antigen receptor NF-kB inhibitors, 697B cells, luminescence (AID 489033).
In general, IC50 refers to the concentration that gives 50% inhibition. For the molecule `O=C(c1ccccc1)c1nn(-c2ccc(Cl)cc2)c(=O)cc1C(F)(F)F`, the IC50 was 6.53 µM.

Take `O=S(=O)(Nc1ccc(F)cc1Cl)c1ccc(-c2cnc(C3CC3)o2)cc1`: the IC50 is 73.4 µM (inactive). Turning to `COc1ccc(COC(=O)c2cc([N+](=O)[O-])ccc2N2CCOCC2)cc1F`, the IC50 is 37.1 µM (inactive). Take `O=[N+]([O-])c1ccc(O)c(/C=N/Nc2ccc(Cl)nn2)c1`: the IC50 was > 80 µM (inactive). The same measure for `COc1ccc(OC)c(CCNC(=O)Cn2nc(C)c3c(C)n(-c4ccc(C)cc4)nc3c2=O)c1`: > 80 µM (inactive). For the molecule `CCOC(=O)c1[nH]c2c(c1C)C(=O)CC(c1ccco1)C2` (stereo unspecified), the IC50 was > 80 µM (inactive). Turning to `C=CCn1c(SCc2c(C)noc2C)nc2ccccc2c1=O`, the IC50 was > 80 µM (inactive).

On to `CCn1nc(C)c(CNC(=O)c2ccc(OC3CCN(Cc4ccccn4)CC3)cc2)c1C`, for which the IC50 is > 80 µM (inactive). For `CC1=C([N+](=O)[O-])C(c2ccccc2)C2=C(N1)c1ccccc1C2=O` (stereo unspecified) the value was > 80 µM (inactive); for `CCN(CC)c1ccc(NC(=O)c2cc(OC)cc(OC)c2)c(C)c1`, > 80 µM (inactive); for `O=S(=O)(Nc1cccc2ncccc12)c1cccs1`, 0.34 µM. For `COc1cccc(CN(C)C(=O)c2ccc(OCC(=O)Nc3cccc(C(F)(F)F)c3)c(OC)c2)c1` the value was 65.7 µM (inactive); for `CCc1ccc(N2C(=O)C(Cl)=C(Nc3ccc(C(=O)N4CCCC4)cc3)C2=O)cc1`, 2.28 µM; for `O=C(Nc1ccccc1Cl)/C(Cl)=C(\Cl)S(=O)c1ccccc1` (stereo unspecified), 0.53 µM. For `CCCCC(=O)NC(c1ccc(Cl)cc1)c1ccc2cccnc2c1O` (stereo unspecified) the value was > 80 µM (inactive).

As for `COc1cc(C(=O)N2CCN(c3cccc(C)c3C)CC2)cc(OC)c1OC`, the IC50 was > 80 µM (inactive).

Regarding `C=C(C)[C@@]12OC3(c4ccccc4)O[C@@H]1C1[C@@H]4O[C@]4(CO)[C@@H](O)[C@]4(O)C(=O)C(C)=C[C@H]4[C@@]1(O3)[C@H](C)[C@H]2OC(=O)/C=C/C=C/c1ccccc1` (stereo partly specified), the IC50 is 38.9 µM (inactive). Turning to `CCOC(=O)c1[nH]c2c(c1C)C(=O)CC(c1ccc(F)cc1)C2` (stereo unspecified), the IC50 was > 80 µM (inactive).

For `CCCC[C@@H](C)C[C@@H](C)C(=O)N(C)[C@@H](CC(C)C)C(=O)N[C@H](C(=O)N(C)[C@H](C(=O)N1C[C@@H](O)C[C@H]1C(=O)N1C(=O)C=C[C@@H]1C)C(C)C)C(C)OC(C)=O` (stereo partly specified), the IC50 is < 0.16 µM.

With `Cc1ccc(-n2ncc3c(N4CCN(c5ccccc5)CC4)ncnc32)c(C)c1`, the IC50 was 5.39 µM. For `O=C(Nc1ccc(C(F)(F)F)cc1)c1cccn(Cc2ccc3c(c2)OC(F)(F)O3)c1=O` the value was > 80 µM (inactive); for `Cc1cccc(OCCNC(=O)c2ccc(Cl)c(S(=O)(=O)NCc3cccnc3)c2)c1`, > 80 µM (inactive). For `Cc1ccc(/C=N/NC(=O)c2c(C)nc3ccc(Br)cn23)cc1` the value was > 80 µM (inactive); for `COc1cc(/C=C2/SC(=Nc3ccc(O)cc3)NC2=O)ccc1O`, 23.4 µM (inactive). The same measure for `Cc1cc(NC(=O)COC(=O)c2ccc(S(=O)(=O)N3CCCc4ccccc43)cc2)no1`: > 80 µM (inactive); for `COc1ccc(OC)c(C2CC(=O)c3c([nH]c(C(=O)OC(C)C)c3C)C2)c1` (stereo unspecified): > 80 µM (inactive); for `CCCC1=Nc2cc(C(=O)NCCCOCC)ccc2Sc2ccccc21`: > 80 µM (inactive). Take `CCCCCCCCCCCCCCCC[n+]1ccc(/C=N/O)cc1`: the IC50 was 13 µM.

Regarding `COc1cc(-c2c(-c3cc(OC)c(OC)c(OC)c3)noc2C)ccc1F`, the IC50 is > 80 µM (inactive). The same measure for `O=C1c2c(O)ccc(O)c2C(=O)c2c(NCCNCCO)ccc(NCCNCCO)c21`: 4.2 µM; for `CC1Cc2cc(-c3csc(NC(=O)Cc4cccs4)n3)ccc2N1S(C)(=O)=O` (stereo unspecified): 13.9 µM. The same measure for `c1ccc(-c2noc(-c3ccc4c(c3)OCO4)n2)nc1`: 1.27 µM; for `COc1ccc(-n2nnnc2-c2ccccc2)cc1`: > 80 µM (inactive); for `Cc1c(C(=O)N2CCOCC2)[nH]c2c1C(=O)CC(c1ccccc1Cl)C2` (stereo unspecified): > 80 µM (inactive).

Turning to `CCN1/C(=C/C(C)=C/c2sc3ccccc3[n+]2CC)Sc2ccccc21`, the 50% inhibitory concentration (IC50) was 2.42 µM. `CCOc1ccccc1NC(=O)CN(c1ccc(OC)cc1)S(=O)(=O)c1c(C)noc1C`: the IC50 was > 80 µM (inactive). For `CCOC(=O)C(C)Oc1cccc2c(=O)n(CC(=O)NCc3ccc(F)cc3)ccc12` (stereo unspecified) the value was > 80 µM (inactive).

On to `COc1cccc(/C=N/Nc2ncnc3c2ncn3Cc2ccccc2)c1O`, for which the IC50 is 23.4 µM (inactive). For `Cc1ccc(C(=O)N/N=C/c2ccc([N+](=O)[O-])s2)cc1` the value was 4.21 µM. For `CCOC(=O)c1ccc2nc(Nc3nc4ccc(F)cc4s3)sc2c1` the value was 20.3 µM (inactive); for `CC(C)(C)c1csc(Sc2ccc([N+](=O)[O-])cn2)n1`, 10.2 µM. The same measure for `COc1ccc(CC(=O)Nc2cccc(-c3nnc(-c4cccc(C)c4)o3)c2)cc1OC`: 8.4 µM; for `Cc1cc(C)cc(NC(=O)c2cc(C)n(Cc3cccs3)c2C)c1`: 24.1 µM (inactive); for `Cc1ccc(NS(=O)(=O)c2ccc(C(=O)NC3CCN(Cc4ccccc4)CC3)cc2)cc1`: 45.5 µM (inactive).

As to `O=C(N=Nc1c(O)[nH]c2ccc(Br)cc12)c1ccccc1-n1cccc1`, the IC50 was 57 µM (inactive).

As for `CCCCCCCCn1c2c(c(=N)c3c1CCC3)CCCC2`, the IC50 was 27.5 µM (inactive). The same measure for `O=C(Cc1ccc(-c2ccccc2)cc1)NCc1ccccc1`: > 80 µM (inactive); for `Clc1cccc(Cl)c1/C=N/Nc1c(Cl)cncc1Cl`: > 80 µM (inactive); for `O=C(Nc1ccc(Cc2ccncc2)cc1)c1ccc(S(=O)(=O)N2CCCC2)cc1`: 5.3 µM. For `COc1ccc(/C=N/Nc2cc(C)nc3ccc(OC)cc23)c(OC)c1` the value was 5.2 µM; for `CC#CC(=O)N1CCC(n2nccc2NC(=O)c2ccc3c(c2)OCO3)CC1`, > 80 µM (inactive). The same measure for `CCOc1ccc(NC(=O)c2cc3c(C)nc4ccccc4c3o2)cc1`: > 80 µM (inactive); for `C/C(=N\NC(=O)c1ccc(Cl)c(Cl)c1)c1ccccn1`: 1.03 µM; for `COc1ccccc1NC(=O)C1=C(C)Nc2nc3ccccc3n2C1c1cccs1` (stereo unspecified): > 80 µM (inactive). `CCC(=O)NC(c1cccs1)c1ccc2cccnc2c1O` (stereo unspecified): the IC50 was > 80 µM (inactive). For `CCS(=O)(=O)c1ncc(Cl)c(C(=O)Nc2ccc(S(=O)(=O)N(C)c3ccccc3)cc2)n1` the value was 1.42 µM; for `COc1cc(C(=O)N2CCN(c3cc(Cl)ccc3Cl)CC2)cc(OC)c1OC`, > 80 µM (inactive); for `O=C(/C=C/c1cccc([N+](=O)[O-])c1)n1cnc2ccccc21`, 3.2 µM.

With `O=C1c2cccc3cc([N+](=O)[O-])cc(c23)C(=O)N1CCN1CCCC1`, the IC50 is 18.7 µM. Consider `O=C(NCc1cccs1)C1CCN(c2ccc(S(=O)(=O)N3CCOCC3)cc2Cl)CC1`, for which the IC50 is > 80 µM (inactive). Regarding `C=CC[C@@H](CC/C=C/C=C/CC/C=C\[C@@H]1CSC([C@@H]2C[C@@H]2C)=N1)OC`, the concentration for half-maximal inhibition (IC50) was 15.3 µM. The same measure for `Cc1ccc2nc(SCC(=O)Nc3cc(C(F)(F)F)ccc3N3CCOCC3)[nH]c2c1`: > 80 µM (inactive); for `Cc1ccc(NS(=O)(=O)c2ccc(-c3cnc(C4CC4)o3)cc2)c(C)c1`: > 80 µM (inactive); for `O=C(c1ccc(Cl)cc1)c1cc([N+](=O)[O-])ccc1N1CCOCC1`: 76 µM (inactive).

Turning to `Cc1ccc(C(=O)c2cc([N+](=O)[O-])ccc2N2CCCCC2)cc1`, the IC50 is > 80 µM (inactive). The same measure for `COc1ccc(OC)c(-c2nnc3n2N=C(c2ccc(OC)c(OC4CCCC4)c2)CS3)c1`: 35.3 µM (inactive). For `CCOc1cccc(/C=N/Nc2ccc(S(=O)(=O)N(CC)CC)cn2)c1O` the value was 11.3 µM; for `CCOc1ccc(S(=O)(=O)N2c3ccccc3CC2C)cc1` (stereo unspecified), > 80 µM (inactive); for `CCCCc1ccc(NC(=O)C(=O)NCCN2CCN(Cc3ccc([N+](=O)[O-])cc3)CC2)cc1`, > 80 µM (inactive). For `O=c1oc2ccccc2cc1-c1cn(-c2ccccc2)c(=S)[nH]1` the value was 0.55 µM; for `Nc1nc(Cl)cc(N2CCC(c3cc(-c4ccc(Cl)cc4)n[nH]3)CC2)n1`, 5.28 µM; for `CC(=O)Nc1ccc(S(=O)(=O)N2CCCc3ccccc32)cc1`, > 80 µM (inactive). With `O=C(COc1ccc2c(-c3ccccc3)cc(=O)oc2c1)Nc1cccnc1`, the IC50 is > 80 µM (inactive). For the molecule `COc1cc(C(=O)N/N=C/c2cc([N+](=O)[O-])cs2)cc(OC)c1OC`, the IC50 is 5.64 µM. For `COc1ccc(Nc2nc3cc(C)ccc3cc2C#N)c(OC)c1` the value was > 80 µM (inactive). For `COCCn1c(C)cc(C2=NNC(=Nc3ccccc3F)SC2)c1C` the value was 20.7 µM (inactive); for `COc1ccc(OC)c(Nc2cc(-c3ccccc3)nc(N)n2)c1`, > 80 µM (inactive). For `Cc1ccc(COC(=O)c2cc([N+](=O)[O-])ccc2N2CCOCC2)cc1` the value was > 80 µM (inactive); for `COc1ccc(NS(=O)(=O)c2cc(-c3cnc(C4CC4)o3)ccc2C)cc1`, > 80 µM (inactive); for `CCCCCCCOc1ccc(OC(=O)c2ccncc2)cc1`, > 80 µM (inactive). Consider `COC(=O)c1ccc(Oc2cc(C)nc(SC)n2)cc1`, for which the IC50 was > 80 µM (inactive). The same measure for `CCc1c(C)nc2ncnn2c1NCCc1ccc(OC)cc1`: > 80 µM (inactive); for `CCC/C(O)=C1\C(=O)CC(C)(C)CC1=Nc1ccc(OC)cc1OC`: > 80 µM (inactive). Consider `COc1ccc(C(=O)N2CCN(c3ccc([N+](=O)[O-])c(NCCc4ccc(OC)c(OC)c4)c3)CC2)cc1`, for which the IC50 is > 80 µM (inactive). For `COc1ccc(Cl)cc1NC(=O)CN(C)CC(=O)Nc1ccccc1N1CCOCC1` the value was > 80 µM (inactive); for `Cc1ccc(Nc2nc(-c3c(C)nc4ccccn34)cs2)cc1`, > 80 µM (inactive).
